Read-outs that look alike come from different tables or passages of the source.
Assays:
CETP [1] = molecular target: T1, CETP (Homo sapiens, UniProt P11597); assay: CETP activity change from pre-dose after single oral doses, Caucasian males (Example 5); format: in vivo; details: for change in vivo at 100 mg: 100 mg with food; for change in vivo at 100 mg / change in vivo at 300 mg / change in vivo at 600 mg / change in vivo at 900 mg / change in vivo at 1200 mg / change in vivo at 1500 mg / change in vivo at 1800 mg: read-out: Percent change from pre-dose in CETP activity (mean); for change in vivo at 300 mg: 300 mg with food; for Decrease in CETP activity relative to pre-dose: 6 hours after administration; for change in vivo at 600 mg: 600 mg with food; for change in vivo at 900 mg: 900 mg with food; for change in vivo at 1200 mg: 1200 mg with food; for change in vivo at 1500 mg: 1500 mg with food; for change in vivo at 1800 mg: 1800 mg with food
T1 construct: from tissue; host or cells: blood / plasma of human subjects dosed orally with Compound I
T1 sequence (P11597 18-493): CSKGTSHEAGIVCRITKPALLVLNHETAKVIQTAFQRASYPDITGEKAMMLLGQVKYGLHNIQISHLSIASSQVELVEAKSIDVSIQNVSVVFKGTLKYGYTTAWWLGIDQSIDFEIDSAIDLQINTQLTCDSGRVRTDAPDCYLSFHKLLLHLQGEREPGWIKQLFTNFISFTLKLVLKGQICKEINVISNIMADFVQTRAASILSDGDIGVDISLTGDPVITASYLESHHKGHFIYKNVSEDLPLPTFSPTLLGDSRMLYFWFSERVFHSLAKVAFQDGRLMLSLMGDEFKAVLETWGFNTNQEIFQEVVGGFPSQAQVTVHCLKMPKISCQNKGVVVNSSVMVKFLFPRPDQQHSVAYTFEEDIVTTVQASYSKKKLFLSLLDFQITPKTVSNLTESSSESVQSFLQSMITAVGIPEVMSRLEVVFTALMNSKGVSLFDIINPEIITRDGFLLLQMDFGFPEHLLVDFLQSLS
Protocol: Administration, dosing, and sampling schedules were substantially similar to those described in Example 1. The tablets were prepared as described in Example 1.
The procedure for determining CETP activity was substantially similar to the procedures described in Tollefson et al., Methods Enzymol., 129, 797-816 (1986), and Kato et al., J. Biol. Chem., 264, 4082-4087 (1989).
CETP activity and changes from baseline (pre-dose) were measured, and the resulting data is summarized in Table 6 as percentage change from baseline.

CETP [2] = molecular target: T1, CETP; assay: Food effect on relative CETP activity, 600 mg Compound I, Japanese males (Example 8); format: in vivo
Protocol: Administration, dosing, and sampling schedules were commensurate with those described in Examples 1 and 6. […] Patients were administered two tablets of 300 mg each. The tablets were prepared as described in Example 1.
Relative CETP activities (calculated as a percentage of baseline CETP activity) and standard deviations (SD) were measured, and the resulting data is summarized in Table 9.

Solubility in water = format: physicochemical
[3] = Plasma pharmacokinetics of the active form of Compound I, single oral doses after standard breakfast, Japanese males (Example 3); format: in vivo, human; details: Examples 1-4
Protocol: Administration, dosing, and sampling schedules were commensurate with those described in Example 1. The tablets were prepared as described in Example 1.

CETP [4] = molecular target: T1, CETP; assay: Food effect on CETP activity, 900 mg Compound I, Caucasian males (Example 6); format: in vivo; details: for change in vivo at 900 mg: read-out: Percent change from pre-dose in CETP activity (mean)
Description: Administration, dosing, and sampling schedules were substantially similar to those described in Example 1.
The procedure for determining CETP activity is described in Example 5.
The mean changes from baseline (pre-dose) in CETP activity over time are set out in the plot of FIG. 3.

SMILES: CCC(CC)CC1(C(=O)Nc2ccccc2SC(=O)C(C)C)CCCCC1 [Compound I, S-[2-([[1-(2-ethylbutyl)cyclohexyl]carbonyl]amino)phenyl]2-methylpropanethioate]
- change in vivo at 100 mg (CETP [1]; 1 h): -2%
- change in vivo at 100 mg (CETP [1]; 2 h): -2%
- change in vivo at 100 mg (CETP [1]; 4 h): -5%
- change in vivo at 100 mg (CETP [1]; 6 h): -7%
- change in vivo at 100 mg (CETP [1]; 8 h): -6%
- change in vivo at 100 mg (CETP [1]; 24 h): -1%
- change in vivo at 100 mg (CETP [1]; post-study): -5%
- change in vivo at 300 mg (CETP [1]; 1 h): 0%
- change in vivo at 300 mg (CETP [1]; 2 h): -7%
- change in vivo at 300 mg (CETP [1]; 4 h): -12%
- change in vivo at 300 mg (CETP [1]; 6 h): -13%
- change in vivo at 300 mg (CETP [1]; 8 h): -13%
- change in vivo at 300 mg (CETP [1]; 24 h): -6%
- change in vivo at 300 mg (CETP [1]; post-study): 2%
- Decrease in CETP activity relative to pre-dose (CETP [1]; 300 mg): 13%
- change in vivo at 600 mg (CETP [1]; 1 h): -3%
- change in vivo at 600 mg (CETP [1]; 2 h): -12%
- change in vivo at 600 mg (CETP [1]; 4 h): -29%
- change in vivo at 600 mg (CETP [1]; 6 h): -36%
- change in vivo at 600 mg (CETP [1]; 8 h): -36%
- change in vivo at 600 mg (CETP [1]; 24 h): -21%
- change in vivo at 600 mg (CETP [1]; post-study): -6%
- Decrease in CETP activity relative to pre-dose (CETP [1]; 600 mg): 36%
- change in vivo at 900 mg (CETP [1]; 1 h): -3%
- change in vivo at 900 mg (CETP [1]; 2 h): -23%
- change in vivo at 900 mg (CETP [1]; 4 h): -48%
- change in vivo at 900 mg (CETP [1]; 6 h): -55%
- change in vivo at 900 mg (CETP [1]; 8 h): -53%
- change in vivo at 900 mg (CETP [1]; 24 h): -28%
- change in vivo at 900 mg (CETP [1]; post-study): -5%
- Decrease in CETP activity relative to pre-dose (CETP [1]; 900 mg): 55%
- change in vivo at 1200 mg (CETP [1]; 1 h): -3%
- change in vivo at 1200 mg (CETP [1]; 2 h): -17%
- change in vivo at 1200 mg (CETP [1]; 4 h): -58%
- change in vivo at 1200 mg (CETP [1]; 6 h): -71%
- change in vivo at 1200 mg (CETP [1]; 8 h): -70%
- change in vivo at 1200 mg (CETP [1]; 24 h): -43%
- change in vivo at 1200 mg (CETP [1]; post-study): -4%
- change in vivo at 1500 mg (CETP [1]; 1 h): -3%
- change in vivo at 1500 mg (CETP [1]; 2 h): -32%
- change in vivo at 1500 mg (CETP [1]; 4 h): -72%
- change in vivo at 1500 mg (CETP [1]; 6 h): -83%
- change in vivo at 1500 mg (CETP [1]; 8 h): -81%
- change in vivo at 1500 mg (CETP [1]; 24 h): -48%
- change in vivo at 1500 mg (CETP [1]; post-study): 0%
- change in vivo at 1800 mg (CETP [1]; 1 h): -3%
- change in vivo at 1800 mg (CETP [1]; 2 h): -23%
- change in vivo at 1800 mg (CETP [1]; 4 h): -67%
- change in vivo at 1800 mg (CETP [1]; 6 h): -74%
- change in vivo at 1800 mg (CETP [1]; 8 h): -71%
- change in vivo at 1800 mg (CETP [1]; 24 h): -42%
- change in vivo at 1800 mg (CETP [1]; post-study): -5%
- CETP activity relative to pre-dose (CETP [2]; fasted, 1 h): 102.1%
- CETP activity relative to pre-dose (CETP [2]; fasted, 2 h): 99.6%
- CETP activity relative to pre-dose (CETP [2]; fasted, 4 h): 96.5%
- CETP activity relative to pre-dose (CETP [2]; fasted, 6 h): 89.5%
- CETP activity relative to pre-dose (CETP [2]; fasted, 8 h): 87.8%
- CETP activity relative to pre-dose (CETP [2]; fasted, 24 h): 92.6%
- CETP activity relative to pre-dose (CETP [2]; fasted, post-study): 100.4%
- CETP activity relative to pre-dose (CETP [2]; fed, 1 h): 100.4%
- CETP activity relative to pre-dose (CETP [2]; fed, 2 h): 87.8%
- CETP activity relative to pre-dose (CETP [2]; fed, 4 h): 52.6%
- CETP activity relative to pre-dose (CETP [2]; fed, 6 h): 37.6%
- CETP activity relative to pre-dose (CETP [2]; fed, 8 h): 39.1%
- CETP activity relative to pre-dose (CETP [2]; fed, 24 h): 65.5%
- CETP activity relative to pre-dose (CETP [2]; fed, post-study): 102.9%
- solubility (Solubility in water): < 0.1 µg/mL
- Bioavailability (as indicated by Cmax, AUC0-tz, AUC0-∞) in Oriental (especially Japanese) humans as compared to Caucasian humans [3]: greater
- change in vivo at 900 mg (CETP [4]; 1 h, fasted, 1 h): 1%
- change in vivo at 900 mg (CETP [4]; 1 h, fed, 1 h): -1%
- change in vivo at 900 mg (CETP [4]; 2 h, fasted, 2 h): 2%
- change in vivo at 900 mg (CETP [4]; 2 h, fed, 2 h): -16%
- change in vivo at 900 mg (CETP [4]; 4 h, fasted, 4 h): -4%
- change in vivo at 900 mg (CETP [4]; 4 h, fed, 4 h): -44%
- change in vivo at 900 mg (CETP [4]; 6 h, fasted, 6 h): -10%
- change in vivo at 900 mg (CETP [4]; 6 h, fed, 6 h): -59%
- change in vivo at 900 mg (CETP [4]; 8 h, fasted, 8 h): -15%
- change in vivo at 900 mg (CETP [4]; 8 h, fed, 8 h): -58%
- change in vivo at 900 mg (CETP [4]; 24 h, fasted, 24 h): -10%
- change in vivo at 900 mg (CETP [4]; 24 h, fed, 24 h): -34%
- CETP activity, Post-study (all subjects) (CETP [4]; all subjects (fed and fasted periods), post-study): 96

Source: patent US20140243414A1, “PHARMACEUTICAL COMPOSITIONS OF CETP INHIBITORS” (Japan Tobacco Inc., priority 2003, published 2014)
